Measured values: patent US20150167050A1, “Cancer Diagnosis by Measuring Polyisoprenylated Methylated Protein Methyl Esterase Activity” (Florida Agricultural and Mechanical University, priority 2013, published 2015)

Key:
PMPMEase [1] = conditions: cited from earlier work; for concentrations that inhibit PMPMEase: concentration range given in words only
PMPMEase [2] = test: Inhibition of PMPMEase by drugs, curcumin, fatty acids and prostaglandins; assay type: biochemical; conditions: relative to arachidonic acid (AA)

Structure (SMILES)	concentrations that inhibit PMPMEase (PMPMEase [1])	further results
CCCCC[C@H](O)/C=C/[C@H]1[C@H](O)CC(=O)[C@@H]1C/C=C\CCCC(=O)O [PGE2]	–	inhibition of PMPMEase at 1 mM (PMPMEase [1]; 1 mM): did not inhibit
O=P1(N(CCCl)CCCl)NCCCO1 (stereo not drawn) [cyclophosphamide]	millimolar concentrations	–
CC/C(=C(\c1ccccc1)c1ccc(OCCN(C)C)cc1)c1ccccc1 [tamoxifen]	millimolar concentrations	–
COc1cc(/C=C/C(=O)CC(=O)/C=C/c2ccc(O)c(OC)c2)ccc1O [curcumin]	micromolar concentrations	–
CCCCC[C@H](O)/C=C/[C@H]1C=CC(=O)[C@@H]1C/C=C\CCCC(=O)O [Prostaglandin (PG) A2]	–	fold less potent than AA as PMPMEase inhibitor (PMPMEase [2]): 63 fold
CCCCC/C=C\C/C=C\C/C=C\C/C=C\CCCC(=O)O [arachidonic acid]	micromolar concentrations	–
